Experimental data: patent US10682311B2, “Intranasal dexmedetomidine compositions and methods of use thereof” (BAUDAX BIO, INC., priority 2011, dated 2020)

Test: clinical
Settings: human, in vivo, 35 ug
Excerpt: This was a Phase 1, open-label, two period, repeated dose study in healthy subjects to investigate the safety, tolerability, and pharmacokinetics of intranasal dexmedetomidine. A total of 12 subjects (6 male and 6 female) were planned and enrolled. Healthy subjects between the ages of 18 and 50 years, inclusive, were screened for participation at one study site in the United States within 28 days before study drug administration. Medical history, physical examination, baseline laboratory testing, 12 lead electrocardiogram (ECG), pregnancy testing, vital sign measurements, and informed consent were completed during the screening visit.
During Period 1, subjects received two doses of study medication, separated by six hours. During Period 2, study participants received seven doses of study medication administered at six hour intervals. Study Periods were separated by not less than 24 hours between the last dose in Period 1 and the first dose in Period 2.
Serial blood samples were collected at defined intervals during each study period in order to evaluate the pharmacokinetic properties of intranasally administered dexmedetomidine, and its metabolite. Whole blood was collected in 6 mL evacuated collection tubes treated with K2EDTA.
Plasma samples were to be collected within ±2 minutes of the scheduled post-dose time through 60 minutes after dosing, samples collected 75 minutes to 6 hours after dosing were able to be collected within ±5 minutes, and samples collected at and beyond 12 hours after dosing were able to be collected within ±15 minutes of scheduled post-dose time. Actual times were to be recorded for all events, and any deviation outside the specified ranges were required to be clearly documented in the subject's study records.
Immediately after the collection of each sample, the collection tube was to be gently inverted and then placed in wet ice. Within 30 minutes of withdrawal, the tubes were centrifuged at about 2,000×gravity for 10-15 minutes to separate the cells from the plasma. No aids for separation were to be used. Two aliquots (≥0.5 mL each) of plasma were transferred from each sample with clean pipettes and placed in 2 polypropylene storage tubes in equal volumes. The storage tubes were labeled with the following information: protocol number, subject number, study day and relative time of sample (e.g., Period 1, Dose 1, 10 Minutes after dosing), and biologic matrix to be analyzed (e.g., plasma). Within 60 minutes of the collection time, the storage tubes were to be placed into a freezer at −20° C. or below; they remained in the freezer until shipment for analysis.
For pharmacokinetic analyses in Period 1, up to 12 blood samples were collected from each subject prior to and following administration of each study dose. These were collected at predose (Time 0) and at the following approximate times after each dose of study medication: 10, 20, 30, 45, 60, and 90 minutes and 2 and 4 hours; additional blood samples were collected at 6, 12 and 18 hours after Dose 2. In Period 2, up to 13 blood samples were collected from each subject prior to and following administration of Dose 1 and Dose 7. These were collected at predose (Time 0) and at the following approximate times after dosing with study medication: 10, 20, 30, 45, 60, and 90 minutes and 2 and 4 hours; additional blood samples were collected at 6, 12, 18 and 24 hours after Dose 7. Blood samples for Dose 2 through Dose 6 were collected at predose (Time 0) only. […]

## Cc1cccc([C@H](C)c2cnc[nH]2)c1C [Dexmedetomidine, 5-[(1S)-1-(2,3-dimethylphenyl)ethyl]-1H-imidazole]
both, AUC0-6
  AUC(0-t): 0.39 ng·h/mL
both, AUClast
  AUC(0-t): 0.38 ng·h/mL
both, Cmax
  Cmax: 0.09 ng/mL
both, Tmax
  Tmax: 1.26 h
Inhaled or intranasal
  accumulation (AUC for Dose 1 compared to Dose 7): little evidence of accumulation
